Results published in paper PMC6830296 (Journal of Enzyme Inhibition and Medicinal Chemistry, 2019).
Like-named read-outs stand apart in the source and are kept apart here.

Experiments:
LdcCA = target: T1, LdcCA (Leishmania infantum, UniProt A4HSV2); conditions: read-out: KI (μM)^a / LdcCA; CO2 hydration, TRIS pH 8.3, 20 mM Na2SO4, 1 h preincubation at room temperature
T1 construct: gene LINJ_06_0630
T1 sequence (A4HSV2 1-306): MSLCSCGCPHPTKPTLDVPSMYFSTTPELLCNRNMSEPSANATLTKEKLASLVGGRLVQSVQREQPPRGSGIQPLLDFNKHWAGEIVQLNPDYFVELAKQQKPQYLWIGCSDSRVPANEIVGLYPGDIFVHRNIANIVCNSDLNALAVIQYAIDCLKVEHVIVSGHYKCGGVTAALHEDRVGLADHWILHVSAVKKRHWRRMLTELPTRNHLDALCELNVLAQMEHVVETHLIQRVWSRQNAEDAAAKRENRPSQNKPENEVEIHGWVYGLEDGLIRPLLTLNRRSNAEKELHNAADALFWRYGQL

BpsCAβ = target: T2, BpsCAβ (Burkholderia pseudomallei, UniProt Q63Y17); format: biochemical; conditions: read-out: KI (μM)^a / BpsCAβ
T2 construct: gene BPSL0372

FtuβCA = target: T3, FtuβCA (Francisella tularensis, UniProt Q5NH77); format: biochemical; conditions: read-out: KI (μM)^a / FtuβCA
T3 construct: gene cynT

CgNce [1] = target: T4, CgNce (Nakaseomyces glabratus, UniProt Q6FTL6); conditions: read-out: KI (μM)^a / CgNce; CO2 hydration, TRIS pH 8.3, 20 mM Na2SO4, 1 h preincubation at room temperature
T4 construct: gene NCE103

VChβ [2] = target: T5, VChβ (Vibrio cholerae, UniProt Q9KUD6); conditions: read-out: KI (μM)^a / VChβ; CO2 hydration, TRIS pH 8.3, 20 mM Na2SO4, 1 h preincubation at room temperature
T5 construct: gene VC_0586

Can2 = target: T6, Can2 (Cryptococcus neoformans, UniProt Q3I4V7); format: biochemical
T6 construct: recombinant, obtained in-house
T6 sequence (Q3I4V7 1-239): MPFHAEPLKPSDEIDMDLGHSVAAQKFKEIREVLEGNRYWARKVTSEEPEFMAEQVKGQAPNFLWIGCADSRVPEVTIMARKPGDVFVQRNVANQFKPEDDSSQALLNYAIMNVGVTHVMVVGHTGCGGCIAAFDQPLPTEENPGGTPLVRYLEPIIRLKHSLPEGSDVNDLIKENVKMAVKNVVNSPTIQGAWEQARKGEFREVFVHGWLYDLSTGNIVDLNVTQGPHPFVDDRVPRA

CgNce [3] = target: T4, CgNce; assay: biochemical
VChβ [4] = target: T5, VChβ; assay: biochemical
MgCA = target: T7, MgCA (Malassezia globosa, UniProt A8Q1N3); assay: biochemical
T7 construct: gene MGL_1814
T7 sequence (A8Q1N3 1-241): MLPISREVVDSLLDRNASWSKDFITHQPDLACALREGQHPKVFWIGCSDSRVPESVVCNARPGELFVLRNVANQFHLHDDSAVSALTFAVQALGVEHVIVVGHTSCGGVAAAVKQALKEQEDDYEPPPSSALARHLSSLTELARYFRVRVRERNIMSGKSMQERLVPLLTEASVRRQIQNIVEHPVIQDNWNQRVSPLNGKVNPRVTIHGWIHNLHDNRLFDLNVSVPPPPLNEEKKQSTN

T3 sequence (Q5NH77 1-228): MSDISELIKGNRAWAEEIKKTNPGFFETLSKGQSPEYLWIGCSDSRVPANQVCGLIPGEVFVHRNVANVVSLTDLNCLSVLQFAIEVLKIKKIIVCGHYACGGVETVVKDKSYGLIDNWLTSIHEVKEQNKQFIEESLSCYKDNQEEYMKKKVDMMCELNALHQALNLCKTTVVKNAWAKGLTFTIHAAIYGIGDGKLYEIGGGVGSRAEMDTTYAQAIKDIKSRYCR
T4 sequence (Q6FTL6 entry or part of it): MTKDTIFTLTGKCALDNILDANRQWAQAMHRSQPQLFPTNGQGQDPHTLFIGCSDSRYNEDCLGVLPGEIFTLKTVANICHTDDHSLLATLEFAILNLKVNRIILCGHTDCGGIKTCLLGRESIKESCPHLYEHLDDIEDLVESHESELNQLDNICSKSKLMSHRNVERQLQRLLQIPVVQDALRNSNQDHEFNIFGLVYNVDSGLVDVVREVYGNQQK
T2 sequence (Q63Y17 1-256): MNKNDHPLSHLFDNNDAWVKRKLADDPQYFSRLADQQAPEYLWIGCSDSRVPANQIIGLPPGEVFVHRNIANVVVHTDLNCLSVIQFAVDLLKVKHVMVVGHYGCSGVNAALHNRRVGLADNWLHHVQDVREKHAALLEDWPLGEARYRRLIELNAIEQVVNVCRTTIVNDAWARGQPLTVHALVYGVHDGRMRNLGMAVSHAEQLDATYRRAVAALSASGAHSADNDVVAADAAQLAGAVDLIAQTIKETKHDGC
T5 sequence (Q9KUD6 1-222): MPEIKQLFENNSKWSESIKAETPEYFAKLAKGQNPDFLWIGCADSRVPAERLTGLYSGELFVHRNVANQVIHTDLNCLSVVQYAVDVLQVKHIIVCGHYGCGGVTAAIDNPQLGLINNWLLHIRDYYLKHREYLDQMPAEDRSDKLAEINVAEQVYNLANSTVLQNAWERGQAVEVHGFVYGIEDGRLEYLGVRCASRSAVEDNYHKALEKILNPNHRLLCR

Compound	Ki (LdcCA) [µM]	Ki (BpsCAβ) [µM]	Ki (FtuβCA) [µM]	Ki (CgNce [1]) [µM]	Ki (VChβ [2]) [µM]	Ki (Can2; CO2 hydration, TRIS pH 8.3, 20 mM Na2SO4, 1 h preincubation at room temperature, read-out: KI (μM)^a / Can2) [µM]	Ki (CgNce [3]) [µM]	Ki (Can2; read-out: KI (μM)^a / Can2) [µM]	Ki (VChβ [4]) [µM]	Ki (MgCA) [µM]	Ki (Can2) [µM]
NP(N)(=O)c1ccccc1 [compound 2, phenylphosphonic diamide 2]	2.1	2.5	10.3	0.05	0.9	0.03	–	–	–	–	–
COP(N)(=O)c1ccccc1 (centres unmarked) [compound 3, methyl phosphonamidate 3]	0.8	2.1	8.5	–	–	–	0.2	0.02	0.5	–	–
CCOP(N)(=O)c1ccccc1 (centres unmarked) [compound 4, ethyl derivative 4]	3.5	4.6	–	–	–	–	0.8	0.05	9.5	–	–
CCCOP(N)(=O)c1ccccc1 (centres unmarked) [compound 5, propyl (5)]	6.8	12.6	35.6	–	–	–	1.3	0.9	15.4	79	–
CC(C)OP(N)(=O)c1ccccc1 (centres unmarked) [compound 6, isopropyl (6)]	5.1	5.8	18.4	–	–	–	0.7	0.1	7.3	–	–
CCCCOP(N)(=O)c1ccccc1 (centres unmarked) [compound 7, alkyl phosphonamidate 7]	–	22.5	42	–	–	–	5.3	2.2	26.8	–	–
NP(=O)(OCCCl)c1ccccc1 (centres unmarked) [compound 9, alkyl phosphonamidate 9]	–	32.7	15.1	–	–	–	1.8	–	34.7	–	0.6
C#CCOP(N)(=O)c1ccccc1 (centres unmarked) [compound 10, propargyl phosphonamidate 10]	19.3	18.9	6.9	–	–	–	20.2	5.3	20.9	97.4	–
